Reference: patent US9174977B2, “2-azabicyclo[4.1.0]heptane derivatives as orexin receptor antagonists for the treatment of certain disorders” (Rottapharm Biotech S.r.l., priority 2012, dated 2015)

Key:
human OX1 receptors = molecular target: T1, human OX1 receptors (Homo sapiens, UniProt O43613); experiment: antagonistic activity against human OX1 receptor, calcium fluorimetry (Fluo-4NW) in transfected CHO cells; type: cell-based; details: CHO cells transfected with human recombinant OX1, activated with orexin-A 3 nM; pKb = co-logarithm of apparent dissociation constant (modified Cheng Prusoff)
T1 construct: expressed in transfected cells; host or cells: CHO cells
T1 sequence (O43613 1-425): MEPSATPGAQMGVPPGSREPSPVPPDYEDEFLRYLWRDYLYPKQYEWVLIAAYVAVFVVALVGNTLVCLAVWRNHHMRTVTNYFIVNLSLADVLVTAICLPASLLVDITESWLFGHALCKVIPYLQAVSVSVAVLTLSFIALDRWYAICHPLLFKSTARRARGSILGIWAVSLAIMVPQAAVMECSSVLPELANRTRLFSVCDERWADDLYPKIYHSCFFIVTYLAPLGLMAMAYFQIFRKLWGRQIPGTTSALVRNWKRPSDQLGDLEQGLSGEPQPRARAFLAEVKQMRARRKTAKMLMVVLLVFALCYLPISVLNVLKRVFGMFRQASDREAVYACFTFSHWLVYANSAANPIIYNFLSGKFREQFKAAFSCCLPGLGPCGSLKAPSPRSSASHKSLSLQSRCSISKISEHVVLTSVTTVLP
Description: (§1) In a typical experiment, the antagonistic activity against human OX1 and OX2 receptors is determined by using CHO e HEK-293 cells transfected with human recombinant OX1 and OX2 receptors respectively, seeded at density of 2 and 3×10^4 cells/well respectively in a 96 fluorimetry well plate. Thus the plate was loaded with the calcium dye (Fluo-4NW/probenecid in HBSS, Hepes 20 mM, pH 7,4; Invitrogen) at 37° C. for 60 min. Afterward the temperature was equilibrated at 22° C. for 15 min and the [Ca2+]i measured directly on the plate by using a fluorescent plate reader (CellLux Perkin Elmer).
(§2) Invention compounds were dissolved in DMSO, diluted in HBSS (DMSO, 0.3% final) and added to the wells. After 5 min CHO cells were activated with orexin-A, 3 nM while HEK-293 cells were activated with orexin-B, 10 nM.
(§3) The compounds, dissolved in DMSO and diluted in the medium (DMSO, 0.3% final), have been analysed in the 1 nM-1 μM concentration range (every concentration in duplicate). The antagonistic activity has been expressed as pKb (co-logarithm of the apparent dissociation constant calculated by using the modified Cheng Prusoff equation).
(§4) The results are expressed as percent of control specific […] response ((measured specific response/control specific agonist response)×100) obtained in the presence of the test compounds.
(§5) The IC50 values (concentration causing a half-maximal inhibition of the control specific agonist response) were determinated by non-linear regression analysis of the concentration curves generated with mean replicate values using hill equation curve fitting. The IC50 values are obtained by the arithmetical mean of at least two experiments.

human OX2 receptors = molecular target: T2, human OX2 receptors (Homo sapiens, UniProt O43614); experiment: antagonistic activity against human OX2 receptor, calcium fluorimetry (Fluo-4NW) in transfected HEK-293 cells; type: cell-based; details: HEK-293 cells transfected with human recombinant OX2, activated with orexin-B 10 nM; pKb = co-logarithm of apparent dissociation constant (modified Cheng Prusoff)
T2 construct: expressed in transfected cells; host or cells: HEK-293 cells
T2 sequence (O43614 1-444): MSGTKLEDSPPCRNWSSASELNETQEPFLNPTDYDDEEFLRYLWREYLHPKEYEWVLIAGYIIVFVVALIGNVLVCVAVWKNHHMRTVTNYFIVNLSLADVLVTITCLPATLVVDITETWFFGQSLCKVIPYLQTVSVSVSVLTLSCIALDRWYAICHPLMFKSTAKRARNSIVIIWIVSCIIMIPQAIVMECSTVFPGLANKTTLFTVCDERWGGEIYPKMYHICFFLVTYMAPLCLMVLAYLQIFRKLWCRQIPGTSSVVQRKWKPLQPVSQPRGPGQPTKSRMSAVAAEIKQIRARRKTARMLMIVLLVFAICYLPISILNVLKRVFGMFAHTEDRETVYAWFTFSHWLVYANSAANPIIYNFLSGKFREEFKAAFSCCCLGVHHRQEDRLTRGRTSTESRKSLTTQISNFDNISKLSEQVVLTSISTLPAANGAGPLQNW
Description: as §1, §2, §3, §4, §5

Compound | Kb (human OX1 receptors) | Kb (human OX2 receptors)
Cc1ccc(-c2ncccn2)c(C(=O)N2[C@H](CNc3ccc(Cl)cn3)CC[C@H]3C[C@H]32)c1 [Compound 1c] | 0.794 nM | 12.6 nM
Cc1nc(C(=O)N2[C@H](CNc3ccc(Cl)cn3)CC[C@H]3C[C@H]32)c(-c2ccccc2)s1 [Compound 2b, ((1R,3S,6S)-3-(((5-chloropyridin-2-yl)amino)methyl)-2-azabicyclo[4.1.0]heptan-2-yl)(2-methyl-5-phenylthiazol-4-yl)methanone] | 1.26 nM | 15.8 nM
Cc1ccc(-c2ncccn2)c(C(=O)N2[C@H](CNc3ccc(C(F)(F)F)cn3)CC[C@H]3C[C@H]32)c1 [Compound 1d, (5-methyl-2-(pyrimidin-2-yl)phenyl)((1R,3S,6S)-3-(((5-(trifluoromethyl)pyridin-2-yl)amino)methyl)-2-azabicyclo[4.1.0]heptan-2-yl)methanone] | 1.26 nM | 3.98 nM
O=C(c1cc(Cl)ccc1-c1ncccn1)N1[C@H](CNc2nccc(C(F)(F)F)n2)CC[C@H]2C[C@H]21 [Compound 1g, (5-chloro-2-(pyrimidin-2-yl)phenyl)((1R,3S,6S)-3-(((4-(trifluoromethyl)pyrimidin-2-yl)amino)methyl)-2-azabicyclo[4.1.0]heptan-2-yl)methanone] | 1 nM | 5.01 nM
O=C(c1cc(Cl)ccc1-c1ncccn1)N1[C@H](CNc2ccc(C(F)(F)F)cn2)CC[C@H]2C[C@H]21 [Compound 1e, (5-chloro-2-(pyrimidin-2-yl)phenyl)((1R,3S,6S)-3-(((5-(trifluoromethyl)pyridin-2-yl)amino)methyl)-2-azabicyclo[4.1.0]heptan-2-yl)methanone] | 2.51 nM | 12.6 nM
O=C(c1cc(Cl)ccc1-c1ncccn1)N1[C@H](CNc2ccc(Cl)cn2)CC[C@H]2C[C@H]21 [Compound 1f, (5-chloro-2-(pyrimidin-2-yl)phenyl)((1R,3S,6S)-3-(((5-chloropyridin-2-yl)amino)methyl)-2-azabicyclo[4.1.0]heptan-2-yl)methanone] | 0.794 nM | 15.8 nM
Cc1nc(C(=O)N2[C@H](CNc3ccc(C(F)(F)F)cn3)CC[C@H]3C[C@H]32)c(-c2ccccc2)s1 [Compound 2a, (2-methyl-5-phenylthiazol-4-yl)((1R,3S,6S)-3-(((5-(trifluoromethyl)pyridin-2-yl)amino)methyl)-2-azabicyclo[4.1.0]heptan-2-yl)methanone] | 2.51 nM | 2.51 nM
Cc1nc(C(=O)N2[C@H](CNc3nccc(C(F)(F)F)n3)CC[C@H]3C[C@H]32)c(-c2ccccc2)s1 [Compound 2c, (2-methyl-5-phenylthiazol-4-yl)((1R,3S,6S)-3-(((4-(trifluoromethyl)pyrimidin-2-yl)amino)methyl)-2-azabicyclo[4.1.0]heptan-2-yl)methanone] | 1.26 nM | 6.31 nM
Cc1nc(C(=O)N2[C@H](CNc3ccc(C(F)(F)F)cn3)CC[C@@H]3C[C@@H]32)c(-c2ccccc2)s1 [Compound 5a, (2-methyl-5-phenylthiazol-4-yl)((1S,3S,6R)-3-(((5-(trifluoromethyl)pyridin-2-yl)amino)methyl)-2-azabicyclo[4.1.0]heptan-2-yl)methanone] | 2.51 nM | 50.1 nM
Cc1ccc(-c2ncccn2)c(C(=O)N2[C@H](CNc3ccc(C(F)(F)F)cn3)CC[C@@H]3C[C@@H]32)c1 [Compound 4a, (5-methyl-2-(pyrimidin-2-yl)phenyl)((1S,3S,6R)-3-(((5-(trifluoromethyl)pyridin-2-yl)amino)methyl)-2-azabicyclo[4.1.0]heptan-2-yl)methanone] | 2.51 nM | 39.8 nM
O=C(c1cc(Cl)ccc1-c1ncccn1)N1[C@H](CNc2ccc(Cl)cn2)CC[C@@H]2C[C@@H]21 [Compound 4e, (5-chloro-2-(pyrimidin-2-yl)phenyl)((1S,3S,6R)-3-(((5-chloropyridin-2-yl)amino)methyl)-2-azabicyclo[4.1.0]heptan-2-yl)methanone] | 3.98 nM | 
Cc1ccc(-c2ncccn2)c(C(=O)N2[C@H](CNc3ccc(Cl)cn3)CC[C@@H]3C[C@@H]32)c1 [Compound 4g, ((1S,3S,6R)-3-(((5-chloropyridin-2-yl)amino)methyl)-2-azabicyclo[4.1.0]heptan-2-yl)(5-methyl-2-(pyrimidin-2-yl)phenyl)methanone] | 1.58 nM | 
Cc1ccc(-c2ncccn2)c(C(=O)N2[C@H](CNc3nccc(C(F)(F)F)n3)CC[C@@H]3C[C@@H]32)c1 [Compound 4i, (5-methyl-2-(pyrimidin-2-yl)phenyl)((1S,3S,6R)-3-(((4-(trifluoromethyl)pyrimidin-2-yl)amino)methyl)-2-azabicyclo[4.1.0]heptan-2-yl)methanone] | 25.1 nM | 
O=C(c1cc(Cl)ccc1-c1ncccn1)N1[C@H](CNc2nccc(C(F)(F)F)n2)CC[C@@H]2C[C@@H]21 [Compound 4h, (5-chloro-2-(pyrimidin-2-yl)phenyl)((1S,3S,6R)-3-(((4-(trifluoromethyl)pyrimidin-2-yl)amino)methyl)-2-azabicyclo[4.1.0]heptan-2-yl)methanone] | 31.6 nM | 

Now from value to compound:

Kb (human OX1 receptors) | Kb (human OX2 receptors) | Compound
1.58 nM | 12.6 nM | Cc1ccc(-c2ncccn2)c(C(=O)N2[C@H](COc3ccc(C(F)(F)F)cn3)CC[C@H]3C[C@H]32)c1 [Compound 3g, (5-methyl-2-(pyrimidin-2-yl)phenyl)((1R,3S,6S)-3-(((5-(trifluoromethyl)pyridin-2-yl)oxy)methyl)-2-azabicyclo[4.1.0]heptan-2-yl)methanone]
7.94 nM | 10 nM | N#Cc1ccc(-c2ncccn2)c(C(=O)N2[C@H](CNc3cc(C(F)(F)F)ccn3)CC[C@H]3C[C@H]32)c1 [Compound 1h, 4-(pyrimidin-2-yl)-3-((1R,3S,6S)-3-(((4-(trifluoromethyl)pyridin-2-yl)amino)methyl)-2-azabicyclo[4.1.0]heptane-2-carbonyl)benzonitrile]
5.01 nM | 10 nM | N#Cc1ccc(-c2ncccn2)c(C(=O)N2[C@H](CNc3ccc(C(F)(F)F)cn3)CC[C@H]3C[C@H]32)c1 [Compound 1b, 4-(pyrimidin-2-yl)-3-((1R,3S,6S)-3-(((5-(trifluoromethyl)pyridin-2-yl)amino)methyl)-2-azabicyclo[4.1.0]heptane-2-carbonyl)benzonitrile]
1 nM | 50.1 nM | Cc1ccc(-c2ncccn2)c(C(=O)N2[C@H](COc3ccc(Cl)cn3)CC[C@H]3C[C@H]32)c1 [Compound 3f, ((1R,3S,6S)-3-(((5-chloropyridin-2-yl)oxy)methyl)-2-azabicyclo[4.1.0]heptan-2-yl)(5-methyl-2-(pyrimidin-2-yl)phenyl)methanone]
1.26 nM | 63.1 nM | N#Cc1ccc(-c2ncccn2)c(C(=O)N2[C@H](COc3ccc(Cl)cn3)CC[C@H]3C[C@H]32)c1 [Compound 3a, 3-((1R,3S,6S)-3-(((5-chloropyridin-2-yl)oxy)methyl)-2-azabicyclo[4.1.0]heptane-2-carbonyl)-4-(pyrimidin-2-yl)benzonitrile]
12.6 nM | 63.1 nM | O=C(c1cc(Cl)ccc1-c1ncccn1)N1[C@H](COc2ccc(F)cn2)CC[C@H]2C[C@H]21 [Compound 3c, (5-chloro-2-(pyrimidin-2-yl)phenyl)((1R,3S,6S)-3-(((5-fluoropyridin-2-yl)oxy)methyl)-2-azabicyclo[4.1.0]heptan-2-yl)methanone]
79.4 nM |  | N#Cc1ccc(-c2ncccn2)c(C(=O)N2[C@H](COc3ccc(F)cn3)CC[C@H]3C[C@H]32)c1 [Compound 3b, 3-((1R,3S,6S)-3-(((5-fluoropyridin-2-yl)oxy)methyl)-2-azabicyclo[4.1.0]heptane-2-carbonyl)-4-(pyrimidin-2-yl)benzonitrile]
